Patent publication EP0090603A2, “Antibacterial compounds” (BEECHAM GROUP PLC, priority 1982, dated 1983)
In brackets after ≈: the same amount, converted by molar mass.

How the values were obtained:
Format in all cases: cell-based
[1] = test system: M. suipneumoniae J2206/183^b; test: MIC against Mycoplasma, in vitro agar dilution; details: Friis broth solidified with 0.9% agarose, 10^3 to 10^5 C.F.U., 6 days at 37°C; for MIC: Mesomycoplasma hyopneumoniae, 144 h, read-out: MIC's against M. suipneumoniae J2206/183^b
M. suipneumoniae TAM 6N = test: MIC against Mycoplasma, in vitro agar dilution; details: Friis broth solidified with 0.9% agarose, 10^3 to 10^5 C.F.U., 6 days at 37°C; for MIC: Mesomycoplasma hyopneumoniae, TAM6N, 144 h, read-out: MIC's against M. suipneumoniae TAM 6N
M. suipneumoniae MS 16 = test: MIC against Mycoplasma, in vitro agar dilution; details: Friis broth solidified with 0.9% agarose, 10^3 to 10^5 C.F.U., 6 days at 37°C; for MIC: Mesomycoplasma hyopneumoniae, MS16, 144 h, read-out: MIC's against M. suipneumoniae MS 16
M. suipneumoniae LABER = test: MIC against Mycoplasma, in vitro agar dilution; details: Friis broth solidified with 0.9% agarose, 10^3 to 10^5 C.F.U., 6 days at 37°C; for MIC: Mesomycoplasma hyopneumoniae, 144 h, read-out: MIC's against M. suipneumoniae LABER
[2] = test system: M. suipneumoniae ATCC 25095; test: MIC against Mycoplasma, in vitro agar dilution; details: Friis broth solidified with 0.9% agarose, 10^3 to 10^5 C.F.U., 6 days at 37°C; for MIC: Mesomycoplasma hyopneumoniae, ATCC25095, 144 h, read-out: MIC's against M. suipneumoniae ATCC 25095
M. suipneumoniae JF 435 = test: MIC against Mycoplasma, in vitro agar dilution; details: Friis broth solidified with 0.9% agarose, 10^3 to 10^5 C.F.U., 6 days at 37°C; for MIC: Mesomycoplasma hyopneumoniae, JF435, 144 h, read-out: MIC's against M. suipneumoniae JF 435
M. gallisepticum S6 = test: MIC against Mycoplasma, in vitro agar dilution; details: Friis broth solidified with 0.9% agarose, 10^3 to 10^5 C.F.U., 6 days at 37°C; for MIC: Mycoplasmoides gallisepticum, S6, 144 h, read-out: MIC's against M. gallisepticum S6
[3] = test system: M. hyosynoviae ATCC 25591; test: MIC against Mycoplasma, in vitro agar dilution; details: Friis broth solidified with 0.9% agarose, 10^3 to 10^5 C.F.U., 6 days at 37°C; for MIC: 144 h, read-out: MIC's against M. hyosynoviae ATCC 25591
M. suipneumoniae NB12 = test: MIC against Mycoplasma, in vitro agar dilution; details: Friis broth solidified with 0.9% agarose, 10^3 to 10^5 C.F.U., 6 days at 37°C; for MIC: Mesomycoplasma hyopneumoniae, NB12, 144 h, read-out: MIC's against M. suipneumoniae NB12
[4] = test system: M. bovigenitalium ATCC 14173; test: MIC against Mycoplasma, in vitro agar dilution; details: Friis broth solidified with 0.9% agarose, 10^3 to 10^5 C.F.U., 6 days at 37°C; for MIC: 144 h, read-out: MIC's against M. bovigenitalium ATCC 14173
M. suipneumoniae Str. 11 = test: MIC against Mycoplasma, in vitro agar dilution; details: Friis broth solidified with 0.9% agarose, 10^3 to 10^5 C.F.U., 6 days at 37°C; for MIC: Mesomycoplasma hyopneumoniae, STR.11, 144 h, read-out: MIC's against M. suipneumoniae Str. 11
M. bovis NCTC 10131 = test: microbe, parasite or virus in culture; details: for MIC: NCTC10131, 144 h, read-out: MIC's against M. bovis NCTC 10131; for MIC's against M. bovis NCTC 10131: Friis broth solidified with 0.9% agarose, 10^3 to 10^5 C.F.U., 6 days at 37°C
M. hyorhinis ATCC 25021 = test: MIC against Mycoplasma, in vitro agar dilution; details: Friis broth solidified with 0.9% agarose, 10^3 to 10^5 C.F.U., 6 days at 37°C; for MIC: Mesomycoplasma hyorhinis, ATCC25021, 144 h, read-out: MIC's against M. hyorhinis ATCC 25021
M. pneumoniae ATCC 15492 = test: MIC against Mycoplasma, in vitro agar dilution; details: Friis broth solidified with 0.9% agarose, 10^3 to 10^5 C.F.U., 6 days at 37°C; for MIC: Mycoplasmoides pneumoniae, ATCC15492, 144 h, read-out: MIC's against M. pneumoniae ATCC 15492
M. dispar NCTC 10125 = test: MIC against Mycoplasma, in vitro agar dilution; details: Friis broth solidified with 0.9% agarose, 10^3 to 10^5 C.F.U., 6 days at 37°C; for MIC: 144 h, read-out: MIC's against M. dispar NCTC 10125
M. suipneumoniae UCD 1 = test: MIC against Mycoplasma, in vitro agar dilution; details: Friis broth solidified with 0.9% agarose, 10^3 to 10^5 C.F.U., 6 days at 37°C; for MIC: Mesomycoplasma hyopneumoniae, UCD1, 144 h, read-out: MIC's against M. suipneumoniae UCD 1
[5] = test system: M. suipneumoniae PW/C/210; test: MIC against Mycoplasma, in vitro agar dilution; details: Friis broth solidified with 0.9% agarose, 10^3 to 10^5 C.F.U., 6 days at 37°C; for MIC: Mesomycoplasma hyopneumoniae, 144 h, read-out: MIC's against M. suipneumoniae PW/C/210
[6] = test system: M. suipneumoniae NCTC 10110; test: MIC against Mycoplasma, in vitro agar dilution; details: Friis broth solidified with 0.9% agarose, 10^3 to 10^5 C.F.U., 6 days at 37°C; for MIC: Mesomycoplasma hyopneumoniae, NCTC10110, 144 h, read-out: MIC's against M. suipneumoniae NCTC 10110
M. suipneumoniae HK(2) = test: MIC against Mycoplasma, in vitro agar dilution; details: Friis broth solidified with 0.9% agarose, 10^3 to 10^5 C.F.U., 6 days at 37°C; for MIC: Mesomycoplasma hyopneumoniae, 144 h, read-out: MIC's against M. suipneumoniae HK(2)
M. hyorhinis ATCC 23234 = test: MIC against Mycoplasma, in vitro agar dilution; details: Friis broth solidified with 0.9% agarose, 10^3 to 10^5 C.F.U., 6 days at 37°C; for MIC: Mesomycoplasma hyorhinis, ATCC23234, 144 h, read-out: MIC's against M. hyorhinis ATCC 23234

| Compound | MIC [1] [µg/mL] | MIC (M. suipneumoniae TAM 6N) [µg/mL] | MIC (M. suipneumoniae MS 16) [µg/mL] | MIC (M. suipneumoniae LABER) [µg/mL] | MIC [2] [µg/mL] | MIC (M. suipneumoniae JF 435) [µg/mL] | MIC (M. gallisepticum S6) [µg/mL] | MIC [3] [µg/mL] | MIC (M. suipneumoniae NB12) [µg/mL] | MIC [4] [µg/mL] | MIC (M. suipneumoniae Str. 11) [µg/mL] | MIC (M. bovis NCTC 10131) [µg/mL] | MIC (M. hyorhinis ATCC 25021) [µg/mL] | MIC (M. pneumoniae ATCC 15492) [µg/mL] | MIC (M. dispar NCTC 10125) [µg/mL] | MIC (M. suipneumoniae UCD 1) [µg/mL] | MIC [5] [µg/mL] | MIC [6] [µg/mL] | MIC (M. suipneumoniae HK(2)) [µg/mL] | MIC (M. hyorhinis ATCC 23234) [µg/mL] | further results |
| --- | --- | --- | --- | --- | --- | --- | --- | --- | --- | --- | --- | --- | --- | --- | --- | --- | --- | --- | --- | --- | --- |
| CC(CC1OCC(CC2OC2C(C)C(C)O)C(O)C1O)=C(C)C(=O)OCc1cc(C)no1 (stereo not shown) [Example 14, 3-Methyl-5-isoxazolylmethyl 2-methylmonate A] | 0.5 (≈ 1.1 µM) | 1 (≈ 2.2 µM) | 0.25 (≈ 0.551 µM) | 0.25 (≈ 0.551 µM) | 0.5 (≈ 1.1 µM) | 0.5 (≈ 1.1 µM) | 1 (≈ 2.2 µM) | 0.1 (≈ 0.22 µM) | 0.5 (≈ 1.1 µM) | 0.025 (≈ 0.0551 µM) | 0.25 (≈ 0.551 µM) | ≤ 0.01 | 0.25 (≈ 0.551 µM) | 1 (≈ 2.2 µM) | 0.1 (≈ 0.22 µM) | 0.5 (≈ 1.1 µM) | 0.25 (≈ 0.551 µM) | 0.5 (≈ 1.1 µM) | 0.5 (≈ 1.1 µM) | 0.25 (≈ 0.551 µM) |  |
| 8-Hydroxyoctyl 2-methylmonate A [Example 13] |  |  |  |  |  |  |  |  |  |  |  |  |  |  |  |  |  |  |  |  | MIC's against M. suipneumoniae J2206/183^b [1]: 1.0 µg/mL; MIC's against M. suipneumoniae TAM 6N (M. suipneumoniae TAM 6N): 1.0 µg/mL; MIC's against M. suipneumoniae MS 16 (M. suipneumoniae MS 16): 0.5 µg/mL; MIC's against M. suipneumoniae LABER (M. suipneumoniae LABER): 0.5 µg/mL; MIC's against M. suipneumoniae ATCC 25095 [2]: 0.5 µg/mL; MIC's against M. suipneumoniae JF 435 (M. suipneumoniae JF 435): 1.0 µg/mL; MIC's against M. gallisepticum S6 (M. gallisepticum S6): 5.0 µg/mL; MIC's against M. hyosynoviae ATCC 25591 [3]: 0.1 µg/mL; MIC's against M. suipneumoniae NB12 (M. suipneumoniae NB12): 1.0 µg/mL; MIC's against M. bovigenitalium ATCC 14173 [4]: 0.05 µg/mL; MIC's against M. suipneumoniae Str. 11 (M. suipneumoniae Str. 11): 0.5 µg/mL; MIC's against M. bovis NCTC 10131 (M. bovis NCTC 10131): ≤0.01 µg/mL; MIC's against M. hyorhinis ATCC 25021 (M. hyorhinis ATCC 25021): 0.5 µg/mL; MIC's against M. pneumoniae ATCC 15492 (M. pneumoniae ATCC 15492): 1.0 µg/mL; MIC's against M. dispar NCTC 10125 (M. dispar NCTC 10125): 0.1 µg/mL; MIC's against M. suipneumoniae UCD 1 (M. suipneumoniae UCD 1): 1.0 µg/mL; MIC's against M. suipneumoniae PW/C/210 [5]: 0.5 µg/mL; MIC's against M. suipneumoniae NCTC 10110 [6]: 1.0 µg/mL; MIC's against M. suipneumoniae HK(2) (M. suipneumoniae HK(2)): 1.0 µg/mL; MIC's against M. hyorhinis ATCC 23234 (M. hyorhinis ATCC 23234): 0.5 µg/mL |
| 4-(Methylthio)benzyl 2-methylmonate [Example 11] |  |  |  |  |  |  |  |  |  |  |  |  |  |  |  |  |  |  |  |  | MIC's against M. suipneumoniae J2206/183^b [1]: 2.5 µg/mL; MIC's against M. suipneumoniae TAM 6N (M. suipneumoniae TAM 6N): 2.5 µg/mL; MIC's against M. suipneumoniae MS 16 (M. suipneumoniae MS 16): 1.0 µg/mL; MIC's against M. suipneumoniae LABER (M. suipneumoniae LABER): 1.0 µg/mL; MIC's against M. suipneumoniae ATCC 25095 [2]: 2.5 µg/mL; MIC's against M. suipneumoniae JF 435 (M. suipneumoniae JF 435): 2.5 µg/mL; MIC's against M. gallisepticum S6 (M. gallisepticum S6): 10 µg/mL; MIC's against M. hyosynoviae ATCC 25591 [3]: 0.25 µg/mL; MIC's against M. suipneumoniae NB12 (M. suipneumoniae NB12): 1.0 µg/mL; MIC's against M. bovigenitalium ATCC 14173 [4]: 0.1 µg/mL; MIC's against M. suipneumoniae Str. 11 (M. suipneumoniae Str. 11): 1.0 µg/mL; MIC's against M. bovis NCTC 10131 (M. bovis NCTC 10131): 0.05 µg/mL; MIC's against M. hyorhinis ATCC 25021 (M. hyorhinis ATCC 25021): 0.5 µg/mL; MIC's against M. pneumoniae ATCC 15492 (M. pneumoniae ATCC 15492): 5.0 µg/mL; MIC's against M. dispar NCTC 10125 (M. dispar NCTC 10125): 0.5 µg/mL; MIC's against M. suipneumoniae UCD 1 (M. suipneumoniae UCD 1): 2.5 µg/mL; MIC's against M. suipneumoniae PW/C/210 [5]: 1.0 µg/mL; MIC's against M. suipneumoniae NCTC 10110 [6]: 2.5 µg/mL; MIC's against M. suipneumoniae HK(2) (M. suipneumoniae HK(2)): 2.5 µg/mL; MIC's against M. hyorhinis ATCC 23234 (M. hyorhinis ATCC 23234): 1.0 µg/mL |
| CC(CC1OCC(CC2OC2C(C)C(C)O)C(O)C1O)=C(C)C(=O)OCc1ccc(Br)cc1 (stereo not shown) [Example 12, 4-Bromobenzyl 2-methylmonate A] | 10 (≈ 19 µM) | 10 (≈ 19 µM) | 5 (≈ 9.48 µM) | 5 (≈ 9.48 µM) | 5 (≈ 9.48 µM) | 10 (≈ 19 µM) | > 10 | 2.5 (≈ 4.74 µM) | 5 (≈ 9.48 µM) | 0.25 (≈ 0.474 µM) | 5 (≈ 9.48 µM) | 0.1 (≈ 0.19 µM) | 2.5 (≈ 4.74 µM) | 10 (≈ 19 µM) | 2.5 (≈ 4.74 µM) | 10 (≈ 19 µM) | 5 (≈ 9.48 µM) | 10 (≈ 19 µM) | 10 (≈ 19 µM) | 2.5 (≈ 4.74 µM) |  |
| CC(CC1OCC(CC2OC2C(C)C(C)O)C(O)C1O)=C(C)C(=O)OCCCCCCCCC(=O)O [Example 7, Sodium 9-[4-(5S-(2S,3S-epoxy-5S-hydroxy-4S-methylhexyl) -3R,4R-dihdroxytetrahydroxyran-2S-yl)-2,3-dimethylbut-2(E)-enoyloxy]nonanoate] | > 10 | > 10 | 5 | 5 | 10 | > 10 | > 10 | 1 | 10 | 0.5 | 5 | 0.05 | 2.5 | > 10 | 2.5 | > 10 | 5 | 10 | > 10 | 2.5 |  |
